Series [1] relates to mouse adipocytes. Put plainly: Proliferation and apoptosis assays for treatment toxicity. To be noted: 0.5x, 1x, 2x standard concentration [500 nm], 7 days. The series is classed as cell-based. The method, then: P1i and P2i treated adipocytes (and fibroblast controls) were examined for treatment toxicity using proliferation and apoptosis assays. […] Then, cells were treated with either 0.5×, 1×, or 2× the standard concentration of Piezo1 or Piezo2 inhibitors [500 nm]. After 7 days of treatment, cells were fixed or harvested for analysis of potential toxicity. For proliferation, EdU (5-ethynyl-2′-deoxyuridine) incorporation in vitro was investigated on differentiated adipocytes and undifferentiated fibroblasts using the Click-iT™ EdU Cell Proliferation Kit for Imaging, Alexa Fluor™ 488 dye (ThermoFisher, Cat: C10337). Proliferation was detected according to the manufacturer's guidelines. To evaluate apoptosis, the Annexin V Apoptosis Detection Kit-AF647 (Abcam, Cat: 219919) was used according to the manufacturer's guidelines.

A further series has as its system dorsal excisional wounds. Put plainly: Splinted dorsal excisional wounding with inhibitor injected at POD 0. The series is classed as in vivo, mouse.
Another series has as its system wounds. Put plainly: Visium spatial transcriptomic analysis of wounds. The series is classed as in vivo, mouse. The method, then:
Wound specimens were rapidly harvested and flash frozen in OCT. Using the Visium Tissue Optimization Slide and Reagent Kit, permeabilization time was optimized at a thickness at 10 μm per section and 37 minutes for mouse tissue. Following cryo-sectioning at −20 degrees onto gene expression slides the expression slide and reagent kit was used to produce sequencing libraries. The libraries were then sequences using NextSeq (Illumina). Following demultiplication the raw FASTQ files and histology images were processed by sample with the Space Ranger software for genome alignment. The raw spaceranger output files for each sample was then read into a Seurat class object in R using Seurat's Load10× function. Data was normalized using the SCT transform with default parameters. To ascertain the integration of our scRNAseq and Visium spatial analysis we employed the FindTransferAnchors( ) function from Seurat, which allowed the alignment of data using the two datasets. This cross-platform linkage is performed serially in an unconstrained and constrained fashion.

The target in the next series is TRPC1 (Homo sapiens, UniProt P48995). The conditions noted are these: cited from earlier work.
TRPC1, sequence (P48995 whole entry, species assumed): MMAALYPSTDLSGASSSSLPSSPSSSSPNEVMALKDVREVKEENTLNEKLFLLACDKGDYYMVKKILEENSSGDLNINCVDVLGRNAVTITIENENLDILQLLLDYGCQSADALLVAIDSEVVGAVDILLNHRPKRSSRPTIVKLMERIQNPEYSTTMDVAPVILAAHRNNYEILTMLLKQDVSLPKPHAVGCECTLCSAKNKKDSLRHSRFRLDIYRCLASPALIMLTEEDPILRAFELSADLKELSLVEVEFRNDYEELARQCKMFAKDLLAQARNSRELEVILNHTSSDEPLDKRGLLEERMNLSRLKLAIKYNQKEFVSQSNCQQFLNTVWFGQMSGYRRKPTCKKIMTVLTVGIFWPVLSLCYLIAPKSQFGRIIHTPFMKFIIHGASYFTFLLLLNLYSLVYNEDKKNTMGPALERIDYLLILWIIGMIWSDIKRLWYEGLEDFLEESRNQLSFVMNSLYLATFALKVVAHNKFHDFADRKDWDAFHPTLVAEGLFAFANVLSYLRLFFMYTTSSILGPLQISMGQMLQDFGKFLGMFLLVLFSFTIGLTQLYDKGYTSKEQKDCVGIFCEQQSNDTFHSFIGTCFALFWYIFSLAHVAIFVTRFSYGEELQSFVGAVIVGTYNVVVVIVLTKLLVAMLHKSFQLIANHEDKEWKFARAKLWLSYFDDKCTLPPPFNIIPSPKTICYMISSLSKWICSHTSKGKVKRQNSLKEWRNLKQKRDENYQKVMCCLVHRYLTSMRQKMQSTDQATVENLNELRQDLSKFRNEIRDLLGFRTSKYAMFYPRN
A further series concerns the target T1, TRPC6 (Homo sapiens, UniProt Q9Y210).
T1 sequence (Q9Y210 1-931): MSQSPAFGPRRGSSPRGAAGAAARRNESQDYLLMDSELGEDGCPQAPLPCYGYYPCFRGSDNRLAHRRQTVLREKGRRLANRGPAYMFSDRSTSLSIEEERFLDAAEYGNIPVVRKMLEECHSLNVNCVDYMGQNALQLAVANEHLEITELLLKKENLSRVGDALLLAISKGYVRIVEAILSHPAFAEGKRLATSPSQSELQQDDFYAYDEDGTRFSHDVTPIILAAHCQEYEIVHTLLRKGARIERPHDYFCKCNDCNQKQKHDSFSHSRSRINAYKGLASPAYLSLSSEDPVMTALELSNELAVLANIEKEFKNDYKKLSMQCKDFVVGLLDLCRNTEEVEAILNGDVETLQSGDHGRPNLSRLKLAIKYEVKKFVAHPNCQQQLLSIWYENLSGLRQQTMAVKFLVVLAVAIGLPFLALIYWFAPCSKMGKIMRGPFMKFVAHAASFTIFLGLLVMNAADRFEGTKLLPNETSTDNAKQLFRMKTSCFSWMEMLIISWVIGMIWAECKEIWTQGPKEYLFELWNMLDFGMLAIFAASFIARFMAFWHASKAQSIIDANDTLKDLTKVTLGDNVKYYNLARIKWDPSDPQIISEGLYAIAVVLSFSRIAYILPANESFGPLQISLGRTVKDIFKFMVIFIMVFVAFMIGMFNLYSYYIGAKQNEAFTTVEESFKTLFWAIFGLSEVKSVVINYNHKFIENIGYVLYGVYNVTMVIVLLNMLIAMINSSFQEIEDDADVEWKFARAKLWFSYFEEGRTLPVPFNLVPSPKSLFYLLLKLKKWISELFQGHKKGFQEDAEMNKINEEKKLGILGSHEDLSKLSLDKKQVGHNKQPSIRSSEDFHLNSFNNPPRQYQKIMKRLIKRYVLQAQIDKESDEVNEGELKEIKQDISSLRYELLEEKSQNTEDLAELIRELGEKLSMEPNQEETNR
To be noted: cited from earlier work.

The subject of series [2] is mouse adipocytes. Put plainly: Mouse adipocyte-populated collagen I hydrogels with or without mechanical stretch. To be noted: 10% equibiaxial strain, 7 days; GsMTx4 500 nM, D-GsMTx4 500 nM, PF573228 10 uM, Verteporfin 300 nM.

No end group written: not given here.

For the substance “GsMTx4 (GCLEFWWKCNPNDDKCCRPKLKCSKLFKLCNFSF; ends and bridges not checked; cysteine pairing not given here; UniProt Q7YT39 47-80, looked up) [P1i]”, in the series with mouse adipocytes [1], the “percentage of cells positive for EdU, annexin V or DAPI by FACS” value is “None of the markers' expression was significantly different”. In the series on dorsal excisional wounds (30 uL of 0.2 mg/ml intradermal at wound edge, POD 0), the “time to complete wound re-epithelialization” value is listed as “did not significantly affect”. Also, in the series with dorsal excisional wounds (POD 14), the “Oil Red O staining and IF for cytokeratins 14/19 (regenerating appendages)” value is on record as “presence of putative regenerating sebaceous glands/HF”; the “mechanical properties (tensile testing, Young's modulus)” value is “reverted scars to more unwounded-like mechanical properties”. Also, the “adipocyte-derived fibroblasts (ADFs) in wounds” value in the series with dorsal excisional wounds (POD 14, FACS and histology) is “absent”. Further, the “structures consistent with unerupted hair follicles” value with dorsal excisional wounds (POD 14, single injection at POD 0) is “numerous structures morphologically consistent with unerupted hair follicles”. Further, in the series with dorsal excisional wounds (POD 14 and POD 30), the “Col1 and α-SMA” value was “reduced”; the ECM density result was “less dense”. For the same substance, in the series with dorsal excisional wounds (POD 30), the hair follicle formation entry is given as “allowed for hair follicle formation”. In the series on wounds (POD 14), the “differential interaction maps (Visium)” value is “strong interactions between adipocytes and fibroblasts”; the “fibroblast scRNA-seq cluster 0 (mechanically sensitive) spatial enrichment” value is “highly enriched in PBS-treated POD 14 wounds compared to P1i or P2i treated wounds”; the “fibroblast scRNA-seq cluster 5 (mechanically naive) spatial presence” value is “observed”; the “spatial expression of Piezo1, Piezo2, Ptk2 and Yap1” value is given as “appeared mostly at the basal region”. Also, the “spatially variable features (gene expression)” value in the series on wounds (POD 14) was “high expression of markers associated with the epidermis including Krt1 and Krt14”. The “adipocyte and epithelial cells in the spatial environment” value in the series with wounds (POD 14, vs PBS) was “enriched”. For the same substance, in the series with TRPC1, the “block of TRPC1” value is “blocks”. For the same substance, the “block of TRPC6” value with TRPC6 was “blocks”. Moreover, in the series with mouse adipocytes [2], the “stretch-induced phenotypic switch (losing adiponectin, expressing Col1)” value is listed as “abrogated”.
